Test results published in US9708314B2, “Heterocyclic amide compound” (NISSAN CHEMICAL INDUSTRIES, LTD., priority 2013, dated 2017).

Assays:
Type in all cases: in vivo
Brassica campestris L. = assay: Test Example 4: effect on crop by application to foliage (diluvial soil, plastic box); conditions: Application herbicide amount 320 g/ha; effect on crop
Summary of the method: (§1)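 Emulsion-formulated compound, diluted to a predetermined g/ha dose, applied by small sprayer to leaves and stems of 14-day-old seedlings grown in sterilized diluvial soil. Effect rated on 0–5 herbicidal-ratio scale three weeks on.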

[1] = tested on: Beta vulgaris ssp. vulgaris; assay: as above; conditions: Application herbicide amount 320 g/ha; effect on crop
Summary of the method: as §1

Zea mays = assay: as above; conditions: Application herbicide amount 320 g/ha; effect on crop
Summary of the method: as §1

Glycine max = assay: as above; conditions: Application herbicide amount 320 g/ha; effect on crop
Summary of the method: as §1

[2] = tested on: directly sowed Oryza sativa; assay: as above; conditions: Application herbicide amount 320 g/ha; effect on crop
Summary of the method: as §1

Triticum aestivum = assay: as above; conditions: Application herbicide amount 320 g/ha; effect on crop
Summary of the method: as §1

[3] = tested on: transplanted Oryza sativa; assay: Test Example 1: effect on crop, application before weed generation in submerged conditions; conditions: Application herbicide amount 320 g/ha; Seventeenth Table
Summary of the method: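 Rating, on a six-step scale from almost no effect (0) to almost completely withered (5), was made three weeks after pre-emergence treatment. Treatment was surface application to flooded pots at g/ha rates, with plants kept at 25° C. to 30° C.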

Abutilon theophrasti = assay: Test Example 4: herbicidal effect by application to foliage (diluvial soil, plastic box); conditions: Application herbicide amount 320 g/ha
Summary of the method: as §1

Galium spurium = assay: as above; conditions: Application herbicide amount 320 g/ha
Summary of the method: as §1

[4] = tested on: Echinochloa crus-galli var. crus-galli; assay: as above; conditions: Application herbicide amount 320 g/ha
Summary of the method: as §1

Chenopodium album = assay: as above; conditions: Application herbicide amount 320 g/ha
Summary of the method: as §1

Avena fatua = assay: as above; conditions: Application herbicide amount 320 g/ha
Summary of the method: as §1

Setaria viridis = assay: as above; conditions: Application herbicide amount 320 g/ha
Summary of the method: as §1

Digitaria ciliaris = assay: as above; conditions: Application herbicide amount 320 g/ha
Summary of the method: as §1

Lolium multiflorum Lam. = assay: as above; conditions: Application herbicide amount 320 g/ha
Summary of the method: as §1

Apera spica-venti. = assay: as above; conditions: Application herbicide amount 320 g/ha
Summary of the method: as §1

Alopecurus myosuroides = assay: as above; conditions: Application herbicide amount 320 g/ha
Summary of the method: as §1

Veronica persica = assay: as above; conditions: Application herbicide amount 320 g/ha
Summary of the method: as §1

SMILES: Cc1nnc(NC(=O)c2ccc(C(F)(F)F)n3c(-c4cc5ccccc5n4C)nnc23)o1 [1-059]
- g (Brassica campestris L.): 0 (Herbicidal ratio of 5% or less (almost no effect))
- f [1]: 0 (Herbicidal ratio of 5% or less (almost no effect))
- b (Zea mays): 0 (Herbicidal ratio of 5% or less (almost no effect))
- c (Glycine max): 0 (Herbicidal ratio of 5% or less (almost no effect))
- d [2]: 0 (Herbicidal ratio of 5% or less (almost no effect))
- e (Triticum aestivum): 0 (Herbicidal ratio of 5% or less (almost no effect))
- a: transplanted Oryza sativa (effect on crop grade) [3]: 0 (Herbicidal ratio of 5% or less (almost no effect))
- M (Abutilon theophrasti): 4 (Herbicidal ratio of 70% or more and less than 90%)
- Q (Galium spurium): 0 (Herbicidal ratio of 5% or less (almost no effect))
- H [4]: 2 (Herbicidal ratio of 20% or more and less than 40%)
- O (Chenopodium album): 5 (Herbicidal ratio of 90% or more (almost completely withered))
- I (Avena fatua): 0 (Herbicidal ratio of 5% or less (almost no effect))
- G (Setaria viridis): 0 (Herbicidal ratio of 5% or less (almost no effect))
- F (Digitaria ciliaris): 0 (Herbicidal ratio of 5% or less (almost no effect))
- K (Lolium multiflorum Lam.): 0 (Herbicidal ratio of 5% or less (almost no effect))
- L (Apera spica-venti.): 0 (Herbicidal ratio of 5% or less (almost no effect))
- J (Alopecurus myosuroides): 0 (Herbicidal ratio of 5% or less (almost no effect))
- R (Veronica persica): 2 (Herbicidal ratio of 20% or more and less than 40%)

SMILES: COCCOC(=O)Cc1nnc2c(C(=O)Nc3nnc(C)o3)ccc(C(F)(F)F)n12 [1-060]
- g (Brassica campestris L.): 4 (Herbicidal ratio of 70% or more and less than 90%)
- f [1]: 5 (Herbicidal ratio of 90% or more (almost completely withered))
- b (Zea mays): 3 (Herbicidal ratio of 40% or more and less than 70%)
- c (Glycine max): 0 (Herbicidal ratio of 5% or less (almost no effect))
- d [2]: 4 (Herbicidal ratio of 70% or more and less than 90%)
- e (Triticum aestivum): 3 (Herbicidal ratio of 40% or more and less than 70%)
- a: transplanted Oryza sativa (effect on crop grade) [3]: 2 (Herbicidal ratio of 20% or more and less than 40%)
- M (Abutilon theophrasti): 4 (Herbicidal ratio of 70% or more and less than 90%)
- Q (Galium spurium): 3 (Herbicidal ratio of 40% or more and less than 70%)
- H [4]: 5 (Herbicidal ratio of 90% or more (almost completely withered))
- O (Chenopodium album): 5 (Herbicidal ratio of 90% or more (almost completely withered))
- I (Avena fatua): 3 (Herbicidal ratio of 40% or more and less than 70%)
- G (Setaria viridis): 3 (Herbicidal ratio of 40% or more and less than 70%)
- F (Digitaria ciliaris): 5 (Herbicidal ratio of 90% or more (almost completely withered))
- K (Lolium multiflorum Lam.): 2 (Herbicidal ratio of 20% or more and less than 40%)
- L (Apera spica-venti.): 1 (Herbicidal ratio of 5% or more and less than 20%)
- J (Alopecurus myosuroides): 2 (Herbicidal ratio of 20% or more and less than 40%)
- R (Veronica persica): 5 (Herbicidal ratio of 90% or more (almost completely withered))

SMILES: CC(=O)OCc1nnc2c(C(=O)Nc3nnc(C)o3)ccc(C(F)(F)F)n12 [1-062]
- g (Brassica campestris L.): 4 (Herbicidal ratio of 70% or more and less than 90%)
- f [1]: 4 (Herbicidal ratio of 70% or more and less than 90%)
- b (Zea mays): 3 (Herbicidal ratio of 40% or more and less than 70%)
- c (Glycine max): 0 (Herbicidal ratio of 5% or less (almost no effect))
- d [2]: 3 (Herbicidal ratio of 40% or more and less than 70%)
- e (Triticum aestivum): 2 (Herbicidal ratio of 20% or more and less than 40%)
- a: transplanted Oryza sativa (effect on crop grade) [3]: 0 (Herbicidal ratio of 5% or less (almost no effect))
- M (Abutilon theophrasti): 5 (Herbicidal ratio of 90% or more (almost completely withered))
- Q (Galium spurium): 4 (Herbicidal ratio of 70% or more and less than 90%)
- H [4]: 5 (Herbicidal ratio of 90% or more (almost completely withered))
- O (Chenopodium album): 5 (Herbicidal ratio of 90% or more (almost completely withered))
- I (Avena fatua): 3 (Herbicidal ratio of 40% or more and less than 70%)
- G (Setaria viridis): 3 (Herbicidal ratio of 40% or more and less than 70%)
- F (Digitaria ciliaris): 5 (Herbicidal ratio of 90% or more (almost completely withered))
- K (Lolium multiflorum Lam.): 0 (Herbicidal ratio of 5% or less (almost no effect))
- L (Apera spica-venti.): 1 (Herbicidal ratio of 5% or more and less than 20%)
- J (Alopecurus myosuroides): 1 (Herbicidal ratio of 5% or more and less than 20%)
- R (Veronica persica): 4 (Herbicidal ratio of 70% or more and less than 90%)

SMILES: COCCSc1nnc2c(C(=O)Nc3nnc(C)o3)ccc(C(F)(F)F)n12 [1-063]
- g (Brassica campestris L.): 3 (Herbicidal ratio of 40% or more and less than 70%)
- f [1]: 5 (Herbicidal ratio of 90% or more (almost completely withered))
- b (Zea mays): 0 (Herbicidal ratio of 5% or less (almost no effect))
- c (Glycine max): 3 (Herbicidal ratio of 40% or more and less than 70%)
- d [2]: 4 (Herbicidal ratio of 70% or more and less than 90%)
- e (Triticum aestivum): 2 (Herbicidal ratio of 20% or more and less than 40%)
- a: transplanted Oryza sativa (effect on crop grade) [3]: 0 (Herbicidal ratio of 5% or less (almost no effect))
- M (Abutilon theophrasti): 4 (Herbicidal ratio of 70% or more and less than 90%)
- Q (Galium spurium): 3 (Herbicidal ratio of 40% or more and less than 70%)
- H [4]: 5 (Herbicidal ratio of 90% or more (almost completely withered))
- O (Chenopodium album): 5 (Herbicidal ratio of 90% or more (almost completely withered))
- I (Avena fatua): 2 (Herbicidal ratio of 20% or more and less than 40%)
- G (Setaria viridis): 5 (Herbicidal ratio of 90% or more (almost completely withered))
- F (Digitaria ciliaris): 5 (Herbicidal ratio of 90% or more (almost completely withered))
- K (Lolium multiflorum Lam.): 2 (Herbicidal ratio of 20% or more and less than 40%)
- L (Apera spica-venti.): 3 (Herbicidal ratio of 40% or more and less than 70%)
- J (Alopecurus myosuroides): 2 (Herbicidal ratio of 20% or more and less than 40%)
- R (Veronica persica): 5 (Herbicidal ratio of 90% or more (almost completely withered))

SMILES: C=CCSc1nnc2c(C(=O)Nc3nnc(C)o3)ccc(C(F)(F)F)n12 [1-064]
- g (Brassica campestris L.): 3 (Herbicidal ratio of 40% or more and less than 70%)
- f [1]: 4 (Herbicidal ratio of 70% or more and less than 90%)
- b (Zea mays): 0 (Herbicidal ratio of 5% or less (almost no effect))
- c (Glycine max): 0 (Herbicidal ratio of 5% or less (almost no effect))
- d [2]: 3 (Herbicidal ratio of 40% or more and less than 70%)
- e (Triticum aestivum): 0 (Herbicidal ratio of 5% or less (almost no effect))
- a: transplanted Oryza sativa (effect on crop grade) [3]: 0 (Herbicidal ratio of 5% or less (almost no effect))
- M (Abutilon theophrasti): 3 (Herbicidal ratio of 40% or more and less than 70%)
- Q (Galium spurium): 3 (Herbicidal ratio of 40% or more and less than 70%)
- H [4]: 5 (Herbicidal ratio of 90% or more (almost completely withered))
- I (Avena fatua): 1 (Herbicidal ratio of 5% or more and less than 20%)
- G (Setaria viridis): 4 (Herbicidal ratio of 70% or more and less than 90%)
- F (Digitaria ciliaris): 5 (Herbicidal ratio of 90% or more (almost completely withered))
- K (Lolium multiflorum Lam.): 1 (Herbicidal ratio of 5% or more and less than 20%)
- L (Apera spica-venti.): 1 (Herbicidal ratio of 5% or more and less than 20%)
- J (Alopecurus myosuroides): 1 (Herbicidal ratio of 5% or more and less than 20%)
- R (Veronica persica): 3 (Herbicidal ratio of 40% or more and less than 70%)
